Experiments:
Format in all cases: cell-based, human
SNB-19 = assay: NCI60 antitumor screening; details: 10 μM one-dose
M14 = assay: NCI60 antitumor screening; details: 10 μM one-dose
U251 = assay: NCI60 antitumor screening; details: 10 μM one-dose
HL-60(TB) = assay: NCI60 antitumor screening; details: 10 μM one-dose
OVCAR-5 = assay: NCI60 antitumor screening; details: 10 μM one-dose
HCT-15 = assay: NCI60 antitumor screening; details: 10 μM one-dose
PC-3 = assay: NCI60 antitumor screening; details: 10 μM one-dose
RXF 393 = assay: NCI60 antitumor screening; details: 10 μM one-dose
ACHN = assay: NCI60 antitumor screening; details: 10 μM one-dose
UACC-62 = assay: NCI60 antitumor screening; details: 10 μM one-dose
MDA-MB-468 = assay: NCI60 antitumor screening; details: 10 μM one-dose
NCI/ADR-RES = assay: NCI60 antitumor screening; details: 10 μM one-dose
NCI-H460 = assay: NCI60 antitumor screening; details: 10 μM one-dose
HCC-2998 = assay: NCI60 antitumor screening; details: 10 μM one-dose
OVCAR-4 = assay: NCI60 antitumor screening; details: 10 μM one-dose
BT-549 = assay: NCI60 antitumor screening; details: 10 μM one-dose
IGROV1 = assay: NCI60 antitumor screening; details: 10 μM one-dose
A549/ATCC = assay: NCI60 antitumor screening; details: 10 μM one-dose
SR = assay: NCI60 antitumor screening; details: 10 μM one-dose
MOLT-4 = assay: NCI60 antitumor screening; details: 10 μM one-dose
MALME-3M = assay: NCI60 antitumor screening; details: 10 μM one-dose
SF-539 = assay: NCI60 antitumor screening; details: 10 μM one-dose
SF-295 = assay: NCI60 antitumor screening; details: 10 μM one-dose
COLO 205 = assay: NCI60 antitumor screening; details: 10 μM one-dose
HS 578T = assay: NCI60 antitumor screening; details: 10 μM one-dose
SK-MEL-28 = assay: NCI60 antitumor screening; details: 10 μM one-dose
NCI60 cell lines panel = assay: NCI60 antitumor screening, full panel; details: 10 μM one-dose, mean over NCI60
Procedure, shortened: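 Single-concentration screen at 10 μM across the NCI60 panel (leukaemia, NSCLC, colon, CNS, melanoma, ovarian, renal, prostate, breast). Results are expressed as percent growth inhibition (GI%) of treated lines.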

T-47D = assay: NCI60 antitumor screening; details: 10 μM one-dose
MCF7 = assay: NCI60 antitumor screening; details: 10 μM one-dose
786–0 = assay: NCI60 antitumor screening; details: 10 μM one-dose
HOP-92 = assay: NCI60 antitumor screening; details: 10 μM one-dose
A498 = assay: NCI60 antitumor screening; details: 10 μM one-dose
SNB-75 = assay: NCI60 antitumor screening; details: 10 μM one-dose
MDA-MB-435 = assay: NCI60 antitumor screening; details: 10 μM one-dose
DU-145 = assay: NCI60 antitumor screening; details: 10 μM one-dose
HCT-116 = assay: NCI60 antitumor screening; details: 10 μM one-dose
OVCAR-8 = assay: NCI60 antitumor screening; details: 10 μM one-dose
SK-MEL-5 = assay: NCI60 antitumor screening; details: 10 μM one-dose
CAKI-1 = assay: NCI60 antitumor screening; details: 10 μM one-dose
NCI-H226 = assay: NCI60 antitumor screening; details: 10 μM one-dose
SK-OV-3 = assay: NCI60 antitumor screening; details: 10 μM one-dose
NCI-H322M = assay: NCI60 antitumor screening; details: 10 μM one-dose
CCRF-CEM = assay: NCI60 antitumor screening; details: 10 μM one-dose
UO-31 = assay: NCI60 antitumor screening; details: 10 μM one-dose
RPMI-8226 = assay: NCI60 antitumor screening; details: 10 μM one-dose
K-562 = assay: NCI60 antitumor screening; details: 10 μM one-dose
NCI-H522 = assay: NCI60 antitumor screening; details: 10 μM one-dose
SW-620 = assay: NCI60 antitumor screening; details: 10 μM one-dose
EKVX = assay: NCI60 antitumor screening; details: 10 μM one-dose
OVCAR-3 = assay: NCI60 antitumor screening; details: 10 μM one-dose
KM12 = assay: NCI60 antitumor screening; details: 10 μM one-dose
HOP-62 = assay: NCI60 antitumor screening; details: 10 μM one-dose
UACC-257 = assay: NCI60 antitumor screening; details: 10 μM one-dose
SN12C = assay: NCI60 antitumor screening; details: 10 μM one-dose
TK-10 = assay: NCI60 antitumor screening; details: 10 μM one-dose
HT29 = assay: NCI60 antitumor screening; details: 10 μM one-dose
MDA-MB-231/ATCC = assay: NCI60 antitumor screening; details: 10 μM one-dose
SK-MEL-2 = assay: NCI60 antitumor screening; details: 10 μM one-dose
LOX IMVI = assay: NCI60 antitumor screening; details: 10 μM one-dose
SF-268 = assay: NCI60 antitumor screening; details: 10 μM one-dose
NCI-H23 = assay: NCI60 antitumor screening; details: 10 μM one-dose

## Cc1ccc(CSc2nc(-c3ccc(F)cc3)c(C#N)c(=O)[nH]2)cc1 [2d, 4-(4-Fluorophenyl)-2-((4-methylbenzyl)thio)-6-oxo-1,6-dihydropyrimidine-5-carbonitrile]
SNB-19
  GI%: — (GI% < 10)
M14
  GI%: — (GI% < 10)
U251
  GI%: — (GI% < 10)
HL-60(TB)
  GI%: 43.38%
OVCAR-5
  GI%: — (GI% < 10)
HCT-15
  GI%: 15.77%
PC-3
  GI%: — (GI% < 10)
RXF 393
  GI%: — (GI% < 10)
ACHN
  GI%: — (GI% < 10)
UACC-62
  GI%: — (GI% < 10)
MDA-MB-468
  GI%: — (GI% < 10)
NCI/ADR-RES
  GI%: — (GI% < 10)
NCI-H460
  GI%: — (GI% < 10)
HCC-2998
  GI%: — (GI% < 10)
OVCAR-4
  GI%: — (GI% < 10)
BT-549
  GI%: 15.75%
IGROV1
  GI%: — (GI% < 10)
A549/ATCC
  GI%: 10.16%
SR
  GI%: — (GI% < 10)
MOLT-4
  GI%: 11.64%
MALME-3M
  GI%: — (GI% < 10)
SF-539
  GI%: — (GI% < 10)
SF-295
  GI%: — (GI% < 10)
COLO 205
  GI%: — (GI% < 10)
HS 578T
  GI%: — (GI% < 10)
SK-MEL-28
  GI%: — (GI% < 10)
NCI60 cell lines panel
  Mean GI%: — (GI% < 10)
T-47D
  GI%: 13.50%
MCF7
  GI%: 10.82%
786–0
  GI%: — (GI% < 10)
HOP-92
  GI%: — (GI% < 10)
A498
  GI%: — (GI% < 10)
SNB-75
  GI%: — (GI% < 10)
MDA-MB-435
  GI%: — (GI% < 10)
DU-145
  GI%: — (GI% < 10)
HCT-116
  GI%: — (GI% < 10)
OVCAR-8
  GI%: — (GI% < 10)
SK-MEL-5
  GI%: — (GI% < 10)
CAKI-1
  GI%: — (GI% < 10)
NCI-H226
  GI%: — (GI% < 10)
SK-OV-3
  GI%: — (GI% < 10)
NCI-H322M
  GI%: — (GI% < 10)
CCRF-CEM
  GI%: — (GI% < 10)
UO-31
  GI%: — (GI% < 10)
RPMI-8226
  GI%: — (GI% < 10)
K-562
  GI%: — (GI% < 10)
NCI-H522
  GI%: 12.91%
SW-620
  GI%: — (GI% < 10)
EKVX
  GI%: — (GI% < 10)
OVCAR-3
  GI%: — (GI% < 10)
KM12
  GI%: — (GI% < 10)
HOP-62
  GI%: — (GI% < 10)
UACC-257
  GI%: — (GI% < 10)
SN12C
  GI%: — (GI% < 10)
TK-10
  GI%: — (GI% < 10)
HT29
  GI%: 10.72%
MDA-MB-231/ATCC
  GI%: — (GI% < 10)
SK-MEL-2
  GI%: — (GI% < 10)
LOX IMVI
  GI%: — (GI% < 10)
SF-268
  GI%: — (GI% < 10)
NCI-H23
  GI%: — (GI% < 10)

## N#Cc1c(-c2ccc(F)cc2)nc(SCc2ccc(F)cc2)nc1N1CCOCC1 [4b, 2-((4-Fluorobenzyl)thio)-4-(4-fluorophenyl)-6-morpholinopyrimidine-5-carbonitrile]
SNB-19
  GI%: 56.32%
M14
  GI%: — (GI% < 10)
U251
  GI%: 52.85%
HL-60(TB)
  GI%: 15.01%
OVCAR-5
  GI%: 16.89%
HCT-15
  GI%: 20.05%
PC-3
  GI%: 28.37%
RXF 393
  GI%: 58.43%
RXF 393; Table 1
  GI%: — (GI value > 70%)
ACHN
  GI%: 53.35%
UACC-62
  GI%: 30.66%
MDA-MB-468
  GI%: 37.89%
NCI/ADR-RES
  GI%: 36.47%
NCI-H460
  GI%: 26.13%
HCC-2998
  GI%: 12.64%
OVCAR-4
  GI%: 39.53%
OVCAR-4; Table 1
  GI%: — (GI value > 70%)
BT-549
  GI%: 35.72%
IGROV1
  GI%: — (GI% < 10)
A549/ATCC
  GI%: 31.03%
SR; Table 1
  GI%: — (GI value > 70%)
MOLT-4
  GI%: — (GI% < 10)
MALME-3M
  GI%: 41.38%
SF-539
  GI%: 50.95%
SF-539; Table 1
  GI%: — (GI value > 70%)
SF-295
  GI%: 63.10%
COLO 205
  GI%: — (GI% < 10)
HS 578T; Table 1
  GI%: 74.34%
SK-MEL-28
  GI%: 14.16%
NCI60 cell lines panel
  Mean GI%: 34.42%
T-47D
  GI%: 26.75%
MCF7
  GI%: 36.26%
786–0; Table 1
  GI%: 75.34%
HOP-92
  GI%: 65.67%
A498
  GI%: 28.08%
SNB-75; Table 1
  GI%: 82.51%
MDA-MB-435
  GI%: — (GI% < 10)
DU-145
  GI%: 22.16%
HCT-116
  GI%: 33.96%
OVCAR-8
  GI%: 45.16%
SK-MEL-5
  GI%: 25.68%
CAKI-1
  GI%: 69.32%
NCI-H226
  GI%: 51.64%
NCI-H226; Table 1
  GI%: — (GI value > 70%)
SK-OV-3
  GI%: 60.37%
NCI-H322M
  GI%: 21.55%
CCRF-CEM
  GI%: 12.89%
UO-31
  GI%: 13.97%
RPMI-8226
  GI%: — (GI% < 10)
K-562
  GI%: 16.20%
K-562; Table 1
  GI%: — (GI value > 70%)
NCI-H522
  GI%: 45.02%
SW-620
  GI%: 14.48%
EKVX
  GI%: 39.92%
OVCAR-3
  GI%: 24.80%
KM12
  GI%: 12.78%
HOP-62; Table 1
  GI%: 75.65%
UACC-257
  GI%: 22.89%
SN12C
  GI%: 27.12%
TK-10
  GI%: 22.42%
HT29
  GI%: — (GI% < 10)
MDA-MB-231/ATCC
  GI%: 49.52%
SK-MEL-2
  GI%: 21.29%
LOX IMVI
  GI%: 23.57%
SF-268
  GI%: 56.58%
NCI-H23
  GI%: 28.19%

— paper PMC10620772, “Design, synthesis, and biological evaluation of new pyrimidine-5-carbonitrile derivatives as novel anti-cancer, dual EGFR^WT/COX-2 inhibitors with docking studies” (RSC Advances, 2023)
